Assay results reported in the supplement of paper PMC10307832.

Legend:
Assay in all cases: relative viability (nuclei count vs DMSO), 5 days (fraction); higher = more cells survive
NCI-H1437 = system: NCI-H1437
In short: (§1)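 Dosing by pin tool came one day after lung cancer cell lines were seeded in 1536-well plates, using either one drug or a fixed anchor-drug dose plus five library-drug doses (not always all listed) in √10 steps. After 5 days, nuclei were counted on 4× images. Relative viability is treated-well nuclei count divided by vehicle-well nuclei count, and values are medians of duplicate plates.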

COR-L 105 = system: COR-L 105
In short: as §1

NCI-H661 = system: NCI-H661
In short: as §1

NCI-H1975 = system: NCI-H1975
In short: as §1

UMC-11 = system: UMC-11
In short: as §1

NCI-H2023 = system: NCI-H2023
In short: as §1

HCC-78 = system: HCC-78
In short: as §1

LCLC-103H = system: LCLC-103H
In short: as §1

HARA = system: HARA
In short: as §1

NCI-H1944 = system: NCI-H1944
In short: as §1

COR-L23 = system: COR-L23
In short: as §1

NCI-H2085 = system: NCI-H2085
In short: as §1

O=C(O)CCCCC(CCSCc1ccccc1)SCc1ccccc1 (stereo unspecified) [CPI-613] + N=C(N)NC(=N)NCCc1ccccc1 [Phenformin] (partner 250 µM)
relative viability (NCI-H1437; first compound 5 µM): 0.237 | relative viability (NCI-H1437; first compound 15.81 µM): 0.282 | relative viability (NCI-H1437; first compound 50 µM): 0.287 | relative viability (NCI-H1437; first compound 158.11 µM): 0.119 | relative viability (NCI-H1437; first compound 500 µM): 0.0327 | relative viability (COR-L 105; first compound 5 µM): 0.428 | relative viability (COR-L 105; first compound 15.81 µM): 0.405 | relative viability (COR-L 105; first compound 50 µM): 0.443 | relative viability (COR-L 105; first compound 158.11 µM): 0.279 | relative viability (COR-L 105; first compound 500 µM): 0.112 | relative viability (NCI-H661; first compound 5 µM): 0.291 | relative viability (NCI-H661; first compound 15.81 µM): 0.235 | relative viability (NCI-H661; first compound 50 µM): 0.304 | relative viability (NCI-H661; first compound 158.11 µM): 0.214 | relative viability (NCI-H661; first compound 500 µM): 0.113 | relative viability (NCI-H1975; first compound 5 µM): 0.397 | relative viability (NCI-H1975; first compound 15.81 µM): 0.404 | relative viability (NCI-H1975; first compound 50 µM): 0.388 | relative viability (NCI-H1975; first compound 158.11 µM): 0.291 | relative viability (NCI-H1975; first compound 500 µM): 0.0692 | relative viability (UMC-11; first compound 5 µM): 0.274 | relative viability (UMC-11; first compound 15.81 µM): 0.297 | relative viability (UMC-11; first compound 50 µM): 0.289 | relative viability (UMC-11; first compound 158.11 µM): 0.124 | relative viability (UMC-11; first compound 500 µM): 0.117 | relative viability (NCI-H2023; first compound 5 µM): 0.399 | relative viability (NCI-H2023; first compound 15.81 µM): 0.37 | relative viability (NCI-H2023; first compound 50 µM): 0.36 | relative viability (NCI-H2023; first compound 158.11 µM): 0.0556 | relative viability (NCI-H2023; first compound 500 µM): 0.0073 | relative viability (HCC-78; first compound 5 µM): 0.712 | relative viability (HCC-78; first compound 15.81 µM): 0.647 | relative viability (HCC-78; first compound 50 µM): 0.787 | relative viability (HCC-78; first compound 158.11 µM): 0.591 | relative viability (HCC-78; first compound 500 µM): 0.651 | relative viability (LCLC-103H; first compound 5 µM): 0.322 | relative viability (LCLC-103H; first compound 15.81 µM): 0.297 | relative viability (LCLC-103H; first compound 50 µM): 0.377 | relative viability (LCLC-103H; first compound 158.11 µM): 0.294 | relative viability (LCLC-103H; first compound 500 µM): 0.278 | relative viability (HARA; first compound 15.81 µM): 0.394 | relative viability (HARA; first compound 50 µM): 0.444 | relative viability (HARA; first compound 158.11 µM): 0.267 | relative viability (HARA; first compound 500 µM): 0.0155 | relative viability (NCI-H1944; first compound 5 µM): 0.194 | relative viability (NCI-H1944; first compound 15.81 µM): 0.185 | relative viability (NCI-H1944; first compound 50 µM): 0.187 | relative viability (NCI-H1944; first compound 158.11 µM): 0.14 | relative viability (NCI-H1944; first compound 500 µM): 0.0441 | relative viability (COR-L23; first compound 5 µM): 0.438 | relative viability (COR-L23; first compound 15.81 µM): 0.393 | relative viability (COR-L23; first compound 50 µM): 0.475 | relative viability (COR-L23; first compound 158.11 µM): 0.199 | relative viability (COR-L23; first compound 500 µM): 0.0157 | relative viability (NCI-H2085; first compound 5 µM): 0.814 | relative viability (NCI-H2085; first compound 15.81 µM): 0.62
